Measurements published in ChEMBL document CHEMBL1201862, “PubChem BioAssay data set” (2004).
Active and inactive are the calls of the source.

Assays:
Procathepsin L = Procathepsin L (Homo sapiens, UniProt P07711)
[1] = target: T1, Mannose-6-phosphate isomerase (Homo sapiens, UniProt P34949); assay: MPI enzyme activity inhibition – biochemical, fluorescence intensity, coupled assay, primary screen (AID 1209)
T1 sequence (P34949 whole entry): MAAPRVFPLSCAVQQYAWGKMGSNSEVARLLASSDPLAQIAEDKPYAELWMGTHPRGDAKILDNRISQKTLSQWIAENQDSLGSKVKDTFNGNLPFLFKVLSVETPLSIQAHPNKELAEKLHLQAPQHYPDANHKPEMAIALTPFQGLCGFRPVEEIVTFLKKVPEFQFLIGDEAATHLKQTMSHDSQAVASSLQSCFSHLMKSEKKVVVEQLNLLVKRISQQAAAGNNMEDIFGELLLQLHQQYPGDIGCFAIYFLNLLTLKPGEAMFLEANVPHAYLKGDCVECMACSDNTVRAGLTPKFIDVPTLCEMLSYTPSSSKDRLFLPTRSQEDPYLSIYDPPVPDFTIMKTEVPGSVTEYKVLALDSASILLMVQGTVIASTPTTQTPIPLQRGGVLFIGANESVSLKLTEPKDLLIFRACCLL

Aspartyl aminopeptidase = Aspartyl aminopeptidase (Plasmodium falciparum 3D7, UniProt Q8I2J3)
[2] = target: T1, Mannose-6-phosphate isomerase; assay: MPI inhibition at elevated mannose 6-phosphate – biochemical, fluorescence intensity, high mannose 6-phosphate, primary screen (AID 1220)
[3] = target: C-C chemokine receptor type 6 (Homo sapiens, UniProt P51684); assay: antagonism of CCR6 beta-arrestin recruitment – cell-based, luminescent beta-arrestin readout, dose response (AID 504728); format: functional
Beta-galactosidase = Beta-galactosidase (Escherichia coli, UniProt Q8VNN2); assay: detection-enzyme interference by beta-gal modulators – biochemical, E. coli enzyme, set 3, artefact control for CCR6 antagonist project, dose response (AID 504712); format: functional
[4] = BJeH cell viability loss – BJeH cells, dry powder, counter-screen for Ras selective lethality project, dose response (AID 493054); format: functional, cell-based
[5] = target: T2, Voltage-gated N-type calcium channel alpha-1B subunit/Amyloid beta A4 precursor protein-binding family A member 1 (Homo sapiens, UniProt Q00975+Q02410); assay: disruptors of Mint-PDZ/N-type channel peptide interaction – biochemical, HTRF, set 2, SAR follow-up (AID 434980); format: functional
[6] = target: T2, Voltage-gated N-type calcium channel alpha-1B subunit/Amyloid beta A4 precursor protein-binding family A member 1; assay: disruptors of Mint-PDZ/N-type channel peptide interaction – biochemical, HTRF, SAR follow-up (AID 2489); format: functional
SUMO E1/E2 = SUMO E1/E2 (Homo sapiens, UniProt P63279+Q9UBE0+Q9UBT2); assay: SAR analysis of SUMOylation using HTRF in an in-Vitro dose response assay. [Related pubchem assays (depositor defined):AID2006, AID2011, AID2018, AID2069, AID2658]; format: functional
X-box-binding protein 1 = X-box-binding protein 1 (Homo sapiens, UniProt P17861); format: functional, Cricetulus griseus;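 further: confirmatory dose-response counter-screen serving a CHOP assay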
[7] = target: Acyl-homoserine lactone acylase PvdQ (Pseudomonas aeruginosa (strain LESB58), UniProt Q9I194); assay: PvdQ acylase enzyme activity blockers – biochemical, fluorescence, plate reader and imaging, cherry-picks, dose response (AID 493231)
HeLa = assay: Cytotoxicity counterscreen assay for transcriptional activators of heat shock protein 70 (Hsp70). [Related pubchem assays: 1203, 1252 ]; format: functional; conditions: Homo sapiens;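 further: cells exposed to compound for 16 hours before readout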
Trypsin = Trypsin (Sus scrofa, UniProt P00761); assay: trypsin protease activity blockade – biochemical, quenched peptide fluorescence, cherry-pick, selectivity assay for Rce1 protease inhibitor project, dose response (AID 488789)
CAAX prenyl protease 2 = CAAX prenyl protease 2 (Homo sapiens, UniProt Q9Y256); assay: inhibition of Ras-converting CAAX protease Rce1 – biochemical, yeast membranes, quenched-peptide fluorescence, cherry-pick, dose response (AID 588849)
[8] = target: Acylamino-acid-releasing enzyme (Homo sapiens, UniProt P13798); assay: endogenous PME-1 and serine hydrolase inhibition – cell lysate, mouse brain cytosol, FP-rhodamine, gel ABPP, selectivity assay for PME-1 inhibitor project, dose response, panel member APEH Assay Panel member description: Inhibition of N-acylaminoacyl-peptide hydrolase (APEH) (anti-target) (AID 2366)
[9] = target: Protein phosphatase methylesterase 1 (Homo sapiens, UniProt Q9Y570); assay: endogenous PME-1 and serine hydrolase inhibition – cell lysate, mouse brain cytosol, FP-rhodamine, gel ABPP, selectivity assay for PME-1 inhibitor project, dose response, panel member PME-1 Assay Panel member description: Inhibition of endogenously expressed PME-1 (AID 2366)
[10] = target: Scavenger receptor class B member 1 (Mus musculus, UniProt Q61009); assay: mouse SR-BI DiI-HDL uptake blockers – ldlA[mSR-BI] cells, fluorescence, cherry pick, dose response (AID 493194); format: functional, cell-based;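 further: cellular uptake of fluorescent DiI-labeled HDL measured as cell fluorescence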
HEK293 = assay: Fluorescence-based counterscreen for potentiators or agonists of NPY-Y1: cell-based high-throughput dose response assay for inhibitors of cyclic nucleotide gated ion channel (CNGC) activity. In this assay, the parental HEK293 cell line transfected with a cyclic-nucleotide gated ion channel (CNGC)-based cAMP sensor is used to measure inhibition of isoproterenol-induced CNGC …; format: functional; conditions: Homo sapiens
[11] = target: T3, Neuropeptide Y receptor type 2 (Homo sapiens, UniProt P49146); assay: Fluorescence counterscreen for potentiators or agonists of NPY-Y1: Cell-based high-throughput dose response assay for potentiators or agonists of NPY-Y2.; format: functional
T3 sequence (P49146 whole entry): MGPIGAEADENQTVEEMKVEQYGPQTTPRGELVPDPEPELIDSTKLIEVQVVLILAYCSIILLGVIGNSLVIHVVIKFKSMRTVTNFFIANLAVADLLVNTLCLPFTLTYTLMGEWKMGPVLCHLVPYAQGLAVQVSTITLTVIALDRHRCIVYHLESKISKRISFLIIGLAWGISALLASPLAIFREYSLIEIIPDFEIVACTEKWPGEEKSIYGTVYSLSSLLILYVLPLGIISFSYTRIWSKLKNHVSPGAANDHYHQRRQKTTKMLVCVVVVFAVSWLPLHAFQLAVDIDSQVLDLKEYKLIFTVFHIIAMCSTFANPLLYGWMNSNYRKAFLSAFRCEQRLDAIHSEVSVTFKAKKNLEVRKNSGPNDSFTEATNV

[12] = target: T4, Neuropeptide Y receptor type 1 (Homo sapiens, UniProt P25929); assay: Fluorescence-based dose response cell-based high-throughput screening assay for agonists of NPY-Y1. [Related pubchem assays: 1697 (Screening assay (NPY-Y1 agonists).), 1359 (Screening assay (NPY-Y2 potentiators or agonists).), 1304 (Screening assay (NPY-Y1 potentiators or agonists).), 1704 (Screening assay (CNGC inhibitors).), 1791 (Summary AID.)]; format: functional
T4 sequence (P25929 whole entry): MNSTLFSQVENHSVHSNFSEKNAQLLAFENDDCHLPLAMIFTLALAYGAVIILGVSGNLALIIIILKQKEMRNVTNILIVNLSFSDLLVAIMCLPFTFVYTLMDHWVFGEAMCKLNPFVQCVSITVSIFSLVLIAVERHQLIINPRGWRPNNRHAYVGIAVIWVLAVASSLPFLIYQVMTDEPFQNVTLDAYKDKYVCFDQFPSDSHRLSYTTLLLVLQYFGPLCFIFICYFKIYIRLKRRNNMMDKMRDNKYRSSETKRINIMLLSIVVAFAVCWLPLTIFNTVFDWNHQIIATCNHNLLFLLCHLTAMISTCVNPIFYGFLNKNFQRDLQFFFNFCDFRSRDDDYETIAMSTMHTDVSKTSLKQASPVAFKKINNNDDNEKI

[13] = target: T5, Rac GTPase-activating protein 1 (Homo sapiens, UniProt Q9H0H5); assay: blockers of MgcRacGAP-driven Rac1 GTP hydrolysis – biochemical, ADP Hunter fluorescence, primary and confirmatory, confirmation (AID 624330); format: functional
T5 sequence (Q9H0H5 whole entry): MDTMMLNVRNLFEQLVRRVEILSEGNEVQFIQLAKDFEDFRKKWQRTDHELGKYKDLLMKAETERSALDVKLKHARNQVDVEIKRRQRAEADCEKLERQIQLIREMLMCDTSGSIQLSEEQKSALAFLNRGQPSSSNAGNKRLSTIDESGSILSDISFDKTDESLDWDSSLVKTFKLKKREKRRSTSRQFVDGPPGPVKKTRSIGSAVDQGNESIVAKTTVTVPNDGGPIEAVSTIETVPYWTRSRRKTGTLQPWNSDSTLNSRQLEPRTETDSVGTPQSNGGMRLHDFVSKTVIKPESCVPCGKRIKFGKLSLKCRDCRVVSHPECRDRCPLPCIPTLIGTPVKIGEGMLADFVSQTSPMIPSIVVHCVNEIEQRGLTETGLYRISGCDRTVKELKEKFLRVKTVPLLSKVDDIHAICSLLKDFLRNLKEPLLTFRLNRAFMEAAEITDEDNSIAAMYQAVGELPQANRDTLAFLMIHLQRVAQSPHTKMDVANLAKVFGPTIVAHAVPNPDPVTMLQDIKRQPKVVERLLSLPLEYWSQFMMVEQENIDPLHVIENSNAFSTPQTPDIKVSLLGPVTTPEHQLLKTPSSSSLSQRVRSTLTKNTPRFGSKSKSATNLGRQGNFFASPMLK

[14] = target: T4, Neuropeptide Y receptor type 1; assay: Fluorescence-based dose response cell-based high-throughput screening assay for potentiators or agonists of NPY-Y1.; format: functional
[15] = target: T3, Neuropeptide Y receptor type 2; assay: Fluorescence-based counterscreen for agonists of NPY-Y1: cell-based high-throughput dose response assay for agonists of NPY-Y2.; format: functional
Staphylococcus aureus = assay: Inhibitors of Bacterial Quorum Sensing Structure Activity Relationship (SAR) Analysis: Dose Response Assay. [Related pubchem assays: 700, 527 ]; format: functional, organism-based
[16] = target: T6, Eukaryotic translation initiation factor 4H (Homo sapiens, UniProt Q15056); assay: inhibitors of translation initiation factor eIF4H – SAR follow-up (AID 435011); format: functional
[17] = target: T7, Polyadenylate-binding protein 1 (Homo sapiens, UniProt P11940); assay: PABP inhibition in translation initiation, SAR follow-up (AID 435018); format: functional
[18] = target: T6, Eukaryotic translation initiation factor 4H; assay: eIF4H binding inhibition – biochemical, uHTS, fluorescence polarization, translation initiation inhibitor project, primary screen (AID 2012)
[19] = target: DNA dC->dU-editing enzyme APOBEC-3G (Homo sapiens, UniProt Q9HC16); format: functional;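 further: Dose-response counterscreen measuring inhibition of APOBEC3G DNA deaminase activity, run while confirming APOBEC3A inhibitors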
[20] = target: T7, Polyadenylate-binding protein 1; assay: blockers of PABP interaction with poly(A) – biochemical, fluorescence polarization, […] (AID 2014)
[21] = target: DNA dC->dU-editing enzyme APOBEC-3A (Homo sapiens, UniProt P31941); assay: Dose Response confirmation of small molecule APOBEC3A DNA Deaminase Inhibitors via a fluorescence-based single-stranded DNA deaminase assay. [Related pubchem assays (depositor defined):AID493011, AID493024]; format: functional
[22] = target: Melanin-concentrating hormone receptor 1 (Homo sapiens, UniProt Q99705); assay: Fluorescence-based counterscreen for antagonists of the G-protein coupled receptor 7 (GPR7): cell-based high throughput dose response assay to identify antagonists of the melanin-concentrating hormone receptor 1 (MCHR1).; format: functional
[23] = target: T8, Neuropeptides B/W receptor type 1 (Homo sapiens, UniProt P48145); assay: Fluorescence-based dose response cell-based high throughput screening assay to identify antagonists of the G-protein coupled receptor 7 (GPR7). [Related pubchem assays: 1952 (Screening assay (GPR7 antagonists).), 1880 (Summary AID.)]; format: functional
T8 sequence (P48145 whole entry): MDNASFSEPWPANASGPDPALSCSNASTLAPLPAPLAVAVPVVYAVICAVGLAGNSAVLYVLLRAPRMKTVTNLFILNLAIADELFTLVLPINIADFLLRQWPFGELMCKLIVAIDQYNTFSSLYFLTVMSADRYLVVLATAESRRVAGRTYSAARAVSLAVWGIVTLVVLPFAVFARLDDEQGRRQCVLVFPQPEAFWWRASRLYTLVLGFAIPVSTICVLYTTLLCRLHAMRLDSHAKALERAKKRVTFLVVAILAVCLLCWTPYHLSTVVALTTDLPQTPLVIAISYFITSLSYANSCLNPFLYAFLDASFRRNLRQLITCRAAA

T2 sequence (Q00975 whole entry): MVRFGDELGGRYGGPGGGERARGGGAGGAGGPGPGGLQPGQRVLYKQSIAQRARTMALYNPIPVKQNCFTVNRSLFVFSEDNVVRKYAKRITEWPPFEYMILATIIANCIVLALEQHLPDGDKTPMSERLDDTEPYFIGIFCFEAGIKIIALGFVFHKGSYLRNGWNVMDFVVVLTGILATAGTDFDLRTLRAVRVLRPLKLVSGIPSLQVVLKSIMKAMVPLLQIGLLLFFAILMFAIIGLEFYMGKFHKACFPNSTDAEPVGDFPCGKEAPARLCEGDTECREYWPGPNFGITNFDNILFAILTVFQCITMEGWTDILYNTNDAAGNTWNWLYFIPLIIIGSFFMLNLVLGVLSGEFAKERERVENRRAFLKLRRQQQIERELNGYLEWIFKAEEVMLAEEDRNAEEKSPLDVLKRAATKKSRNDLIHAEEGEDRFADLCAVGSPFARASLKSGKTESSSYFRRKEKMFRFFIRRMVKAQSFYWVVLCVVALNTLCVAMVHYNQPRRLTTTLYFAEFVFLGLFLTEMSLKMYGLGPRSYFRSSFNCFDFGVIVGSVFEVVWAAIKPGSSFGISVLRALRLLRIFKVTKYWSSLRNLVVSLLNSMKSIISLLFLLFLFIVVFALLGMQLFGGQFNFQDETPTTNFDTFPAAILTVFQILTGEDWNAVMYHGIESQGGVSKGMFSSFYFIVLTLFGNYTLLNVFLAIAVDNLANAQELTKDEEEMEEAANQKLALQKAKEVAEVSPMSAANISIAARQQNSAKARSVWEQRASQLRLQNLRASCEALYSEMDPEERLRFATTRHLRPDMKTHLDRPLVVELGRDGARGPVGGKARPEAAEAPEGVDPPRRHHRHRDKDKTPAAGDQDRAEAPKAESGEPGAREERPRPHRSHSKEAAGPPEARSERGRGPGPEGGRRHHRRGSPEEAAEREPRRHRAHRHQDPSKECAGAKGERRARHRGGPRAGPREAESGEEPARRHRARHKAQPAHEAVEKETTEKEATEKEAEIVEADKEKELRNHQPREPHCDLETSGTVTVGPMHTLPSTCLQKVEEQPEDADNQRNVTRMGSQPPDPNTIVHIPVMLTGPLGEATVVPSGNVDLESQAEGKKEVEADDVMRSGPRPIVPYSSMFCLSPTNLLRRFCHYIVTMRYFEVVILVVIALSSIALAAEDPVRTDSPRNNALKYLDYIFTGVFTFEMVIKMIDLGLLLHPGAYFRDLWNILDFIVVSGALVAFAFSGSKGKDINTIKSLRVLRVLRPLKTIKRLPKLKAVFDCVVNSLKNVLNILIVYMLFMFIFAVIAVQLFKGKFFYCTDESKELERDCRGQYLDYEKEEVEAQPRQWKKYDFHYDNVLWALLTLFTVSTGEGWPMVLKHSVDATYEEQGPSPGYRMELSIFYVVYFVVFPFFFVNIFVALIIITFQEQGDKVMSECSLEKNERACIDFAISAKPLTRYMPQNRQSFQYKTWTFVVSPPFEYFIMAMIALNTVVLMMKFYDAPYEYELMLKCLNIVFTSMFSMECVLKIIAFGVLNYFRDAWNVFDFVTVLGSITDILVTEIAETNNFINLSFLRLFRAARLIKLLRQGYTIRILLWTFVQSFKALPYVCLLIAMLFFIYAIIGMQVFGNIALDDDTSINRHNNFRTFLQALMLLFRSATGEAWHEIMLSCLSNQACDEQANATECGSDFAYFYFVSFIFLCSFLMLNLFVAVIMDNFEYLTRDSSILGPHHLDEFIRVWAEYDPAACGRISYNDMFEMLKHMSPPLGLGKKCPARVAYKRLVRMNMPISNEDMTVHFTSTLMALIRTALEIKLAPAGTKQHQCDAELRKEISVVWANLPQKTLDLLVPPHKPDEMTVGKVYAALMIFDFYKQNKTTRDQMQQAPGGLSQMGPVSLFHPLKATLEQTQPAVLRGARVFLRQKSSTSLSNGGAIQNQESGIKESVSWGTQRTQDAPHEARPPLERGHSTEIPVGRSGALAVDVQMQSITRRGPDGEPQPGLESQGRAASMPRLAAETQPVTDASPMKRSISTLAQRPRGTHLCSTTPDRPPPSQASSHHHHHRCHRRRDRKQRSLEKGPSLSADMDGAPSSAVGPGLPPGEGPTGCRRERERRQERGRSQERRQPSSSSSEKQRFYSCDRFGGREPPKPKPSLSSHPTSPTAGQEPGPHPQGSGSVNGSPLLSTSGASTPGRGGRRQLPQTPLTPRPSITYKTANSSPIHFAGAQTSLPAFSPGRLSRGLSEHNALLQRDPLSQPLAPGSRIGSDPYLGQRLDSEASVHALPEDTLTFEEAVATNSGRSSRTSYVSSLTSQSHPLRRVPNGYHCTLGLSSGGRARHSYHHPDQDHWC
T2 sequence (Q02410 whole entry): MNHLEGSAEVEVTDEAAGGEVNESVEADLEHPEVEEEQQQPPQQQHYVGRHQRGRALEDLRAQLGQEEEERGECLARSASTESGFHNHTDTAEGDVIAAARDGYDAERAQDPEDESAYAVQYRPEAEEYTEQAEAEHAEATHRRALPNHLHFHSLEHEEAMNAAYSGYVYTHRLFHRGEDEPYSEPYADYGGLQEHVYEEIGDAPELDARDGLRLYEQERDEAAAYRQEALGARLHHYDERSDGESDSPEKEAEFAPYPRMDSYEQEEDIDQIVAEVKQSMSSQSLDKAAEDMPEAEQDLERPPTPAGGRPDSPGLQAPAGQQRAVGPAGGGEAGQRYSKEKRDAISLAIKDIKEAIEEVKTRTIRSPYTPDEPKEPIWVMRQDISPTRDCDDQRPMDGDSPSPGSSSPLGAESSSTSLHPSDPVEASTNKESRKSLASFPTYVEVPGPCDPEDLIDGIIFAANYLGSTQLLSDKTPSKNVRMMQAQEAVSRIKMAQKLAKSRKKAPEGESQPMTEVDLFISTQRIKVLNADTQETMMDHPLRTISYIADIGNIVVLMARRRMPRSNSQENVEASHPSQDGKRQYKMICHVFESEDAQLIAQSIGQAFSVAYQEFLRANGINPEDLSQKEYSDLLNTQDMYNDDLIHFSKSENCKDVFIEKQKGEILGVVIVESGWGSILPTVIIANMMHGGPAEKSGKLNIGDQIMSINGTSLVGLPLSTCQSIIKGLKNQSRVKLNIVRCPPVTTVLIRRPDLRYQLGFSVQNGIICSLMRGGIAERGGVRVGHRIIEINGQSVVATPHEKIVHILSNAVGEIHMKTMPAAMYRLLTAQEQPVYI
T7 sequence (P11940 whole entry): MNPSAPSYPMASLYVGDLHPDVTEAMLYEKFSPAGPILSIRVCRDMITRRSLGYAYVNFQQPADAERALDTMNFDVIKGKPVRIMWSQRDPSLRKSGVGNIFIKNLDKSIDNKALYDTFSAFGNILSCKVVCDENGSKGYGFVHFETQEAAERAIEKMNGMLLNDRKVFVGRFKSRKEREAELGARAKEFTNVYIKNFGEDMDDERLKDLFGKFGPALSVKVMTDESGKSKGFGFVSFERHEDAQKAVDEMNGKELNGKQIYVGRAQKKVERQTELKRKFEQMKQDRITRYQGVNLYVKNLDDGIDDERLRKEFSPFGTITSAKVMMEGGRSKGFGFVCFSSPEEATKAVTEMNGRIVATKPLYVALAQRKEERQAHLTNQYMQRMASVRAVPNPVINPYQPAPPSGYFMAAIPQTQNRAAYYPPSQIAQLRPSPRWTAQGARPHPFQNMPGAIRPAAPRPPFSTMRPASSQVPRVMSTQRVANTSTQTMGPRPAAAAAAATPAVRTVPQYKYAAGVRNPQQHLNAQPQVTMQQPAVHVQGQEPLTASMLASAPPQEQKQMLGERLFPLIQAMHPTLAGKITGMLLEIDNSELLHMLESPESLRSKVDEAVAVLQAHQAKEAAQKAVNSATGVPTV
Chain of DNA dC->dU-editing enzyme APOBEC-3A (P31941 whole entry): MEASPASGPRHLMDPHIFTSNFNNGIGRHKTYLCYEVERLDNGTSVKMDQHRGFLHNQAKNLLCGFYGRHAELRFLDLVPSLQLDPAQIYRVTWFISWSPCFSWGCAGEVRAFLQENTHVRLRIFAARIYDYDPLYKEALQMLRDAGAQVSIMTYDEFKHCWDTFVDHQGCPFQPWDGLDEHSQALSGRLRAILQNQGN
Chain of Scavenger receptor class B member 1 (Q61009 whole entry): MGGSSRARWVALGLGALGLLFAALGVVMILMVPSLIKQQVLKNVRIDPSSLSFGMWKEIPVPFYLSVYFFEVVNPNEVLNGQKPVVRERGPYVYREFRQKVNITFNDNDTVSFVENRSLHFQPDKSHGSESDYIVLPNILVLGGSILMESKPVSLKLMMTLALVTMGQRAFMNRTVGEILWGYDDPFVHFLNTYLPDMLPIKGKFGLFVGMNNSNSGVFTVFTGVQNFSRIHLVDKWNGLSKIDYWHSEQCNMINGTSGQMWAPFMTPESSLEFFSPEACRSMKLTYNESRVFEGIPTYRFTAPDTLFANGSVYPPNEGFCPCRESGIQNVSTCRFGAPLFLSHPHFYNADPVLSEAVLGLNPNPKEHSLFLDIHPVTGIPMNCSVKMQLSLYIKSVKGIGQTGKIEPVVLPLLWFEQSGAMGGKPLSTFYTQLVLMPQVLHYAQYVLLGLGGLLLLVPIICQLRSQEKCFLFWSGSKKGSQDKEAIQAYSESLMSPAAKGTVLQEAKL
Chain of X-box-binding protein 1 (P17861 whole entry): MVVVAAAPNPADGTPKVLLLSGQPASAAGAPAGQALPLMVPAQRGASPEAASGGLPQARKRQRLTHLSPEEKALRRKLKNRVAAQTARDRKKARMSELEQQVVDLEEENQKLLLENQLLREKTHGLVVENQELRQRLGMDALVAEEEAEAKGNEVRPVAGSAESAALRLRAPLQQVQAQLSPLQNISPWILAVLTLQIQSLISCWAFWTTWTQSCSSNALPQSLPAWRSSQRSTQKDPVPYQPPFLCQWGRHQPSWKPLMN

CCOC(=O)NC1(Nc2ccc(C)cc2)Oc2ccccc2O1
IC50 (Procathepsin L): > 59.6 µM (not active)
IC50 [1]: > 50 µM (not active)
IC50 (Aspartyl aminopeptidase): 5.07 µM (active)
IC50 [2]: > 50 µM (not active)

COC(=O)N/N=C/c1cc(N=Nc2ccccc2Cl)ccc1O
IC50 [3]: > 66.6 µM (inactive)
IC50 (Beta-galactosidase): > 66.6 µM (inactive)

COc1ccc(N(C(=O)CSc2ncccn2)C(C(=O)NCCc2ccccc2)c2cccs2)cc1Cl (stereo not drawn)
AC50 [4]: > 381 µM (inactive)

COC(=O)c1ccc(CNC(=O)COC(=O)c2cc(-c3ccco3)nc3ccccc23)cc1
IC50 [5]: 6.74 µM (active)
IC50 [6]: 19.2 µM (active)
IC50 (SUMO E1/E2): 2.23 µM (active)

O=C(CNc1cccc(C(F)(F)F)c1)N/N=C/c1cccc(Br)c1
Absolute IC50 (XBP1) (X-box-binding protein 1): 10 µM

CCOC(=O)C1CCN(c2ccc([N+](=O)[O-])cc2)CC1
AC50 [7]: 40.5 µM (active)
CC50 (HeLa): > 33 µM (not active)

CCOP(=O)(c1ccccc1)c1nc(-c2ccccc2Cl)oc1N1CCCCC1 (stereo not drawn)
AC50 (Trypsin): 4.67 µM (active)
AC50 (CAAX prenyl protease 2): 5.21 µM (active)

CS(=O)(=O)/C(C#N)=C/c1cccn1S(=O)(=O)c1ccccc1
IC50 [8]: 20 µM (inactive)

CS(=O)(=O)/C(C#N)=C/c1cccn1S(=O)(=O)c1ccc([N+](=O)[O-])cc1[N+](=O)[O-]
IC50 [9]: > 20 µM (inactive)

COc1cc(NC(=O)c2ccco2)c(OC)cc1NC(=O)Nc1ccc(Cl)cc1
AC50 [10]: 6.53 µM (active)

CCOC(=O)C(Cc1ccccc1)C(=O)Nc1ccc(N(CC)CC)cc1 (stereo not drawn)
IC50 (HEK293): 18.4 µM (not active)
EC50 [11]: 23.9 µM (not active)
EC50 [12]: 7.05 µM (active)
IC50 [13]: 93.1 µM (active)
EC50 [14]: 5.4 µM (active)
EC50 [15]: 12.4 µM (not active)

CC1CCN(C(C(=O)Nc2ccc(C(C)C)cc2)c2ccc3c(c2)OCO3)CC1 (stereo not drawn)
IC50 (Staphylococcus aureus): 0.717 µM (active)

Cc1ccc(NC(=O)C2CCN(C(=O)c3cccs3)CC2)c(C)c1
IC50 [16]: 47.6 µM (active)
IC50 [17]: 4.95 µM (active)
IC50 [18]: > 100 µM (inactive)
IC50 [19]: 6.56 µM (active)
IC50 [20]: 6.51 µM (active)
IC50 [21]: 4.37 µM (active)

COc1ccc(S(=O)(=O)N2CCC(C(=O)NCc3ccco3)CC2)cc1
IC50 [22]: > 43.8 µM (not active)
IC50 [23]: > 43.8 µM (not active)
